Test results taken from publication PMC9820345, “Metal Complexes of a 5-Nitro-8-Hydroxyquinoline-Proline Hybrid with Enhanced Water Solubility Targeting Multidrug Resistant Cancer Cells” (International Journal of Molecular Sciences, 2022).
Read-outs that look alike come from different tables or passages of the source.

Experiments:
Colo320 [1] = assay: In vitro cytotoxicity, Colo320 cells (MTT); assay type: cell-based, human; settings: Homo sapiens, COLO 320; 72 h exposure
Source text: (§1) Cell lines: all cell culture reagents were obtained from Sigma-Aldrich; plasticware was purchased from Sarstedt (Nümbrecht, Germany); Human colon Colo205 (chemo-sensitive, ATCC-CCL-222) and Colo320 (Pgp/MDR1-expressing, doxorubicin-resistant, ATCC-CCL-220.1) adenocarcinoma cell lines were purchased from LGC Promochem, Teddington, UK; MES-SA and MES-SA/Dx5 uterine sarcoma cell lines were obtained from ATCC, where they were characterized by DNA fingerprinting. The expression of the Pgp efflux pump of MES-SA/Dx5 was proven by Western blot analysis in our former report, and was also reported for the Colo320 cells. The MES-SA and MES-SA/Dx5 cells used in this study were previously engineered to express the fluorescent proteins mCherry and eGFP, respectively, by lentiviral transduction.
(§2) The colon adenocarcinoma cells were cultured in RPMI 1640 medium supplemented with 10% heat-inactivated fetal bovine serum, 2 mM L-glutamine, 1 mM sodium pyruvate, and 100 mM HEPES. The cells were incubated at 37 °C, in a 5% CO2, 95% air atmosphere.
(§3) Cytotoxicity assays: The tested compounds were dissolved in PBS buffer to prepare 5 mM stock solutions, which were diluted in complete culture medium.
(§4) In the case of the Colo205 and Colo320 cells, two-fold serial dilutions were prepared in 100 μL medium. The semi-adherent colon adenocarcinoma cells were treated with Trypsin-Versene (EDTA) solution. They were adjusted to a density of 1 × 10^4 cells in 100 μL of RPMI 1640 medium and were added to each well, with the exception of the medium control wells. The final volume of the wells containing compounds and cells was 200 μL. The plates containing Colo205 and Colo320 cells were incubated at 37 °C for 72 h; at the end of the incubation period, 20 μL of 3-(4,5-dimethyl-2-thiazolyl)-2,5-diphenyl-2H-tetrazolium bromide (MTT) solution (from a stock solution of 5 mg/mL) was added to each well. After incubation at 37 °C for 4 h, 100 μL of sodium dodecyl sulfate (SDS) solution (10% in 0.01 M HCI) was added to each well, and the plates were further incubated at 37 °C overnight. Cell growth was determined by measuring the optical density (OD) at 540/630 nm with a Multiskan EX plate reader (Thermo Labsystems, Cheshire, WA, USA).
(§5) Inhibition of the cell growth (expressed as IC50: inhibitory concentration that reduces by 50% the growth of the cells exposed to the tested compounds) was determined from the sigmoid curve where 100 − ((ODsample − ODmedium control)/(ODcell control − ODmedium control)) × 100 values were plotted against the logarithm of compound concentrations. Curves for the data obtained on Colo205 and Colo320 cells were fitted by GraphPad Prism software (2021, Graphpad Software, version 7.00, San Diego, CA, USA) using the sigmoidal dose–response model (comparing variable and fixed slopes). From the MES-SA cell data, the IC50 values were calculated by our custom program, written by J. Sessler in C#. The p values were calculated by Student’s t-test. The IC50 values were always obtained from at least three independent experiments.

MES-SA/Dx5 = assay: In vitro cytotoxicity, MES-SA/Dx5 cells (fluorescent protein readout); assay type: cell-based, human; settings: Homo sapiens, MES-SA/Dx5; 144 h exposure
Source text: as §1
(§6) MES-SA cell lines were maintained in DMEM, supplemented with 10% fetal bovine serum, 5 mmol/L glutamine, and 50 units/mL penicillin and streptomycin. Cells were tested and resulted negative for mycoplasma contamination with the MycoAlert mycoplasma detection Kit (Lonza Group, Basel, Switzerland). One week prior to the cytotoxicity assays, Dx5 eGFP cells were selected in 500 nM doxorubicin for one passage to ensure the overexpression of P-glycoprotein.
as §3
(§7) In the case of the MES-SA and MES-SA/Dx5 cells, cell suspensions of the fluorescent cell lines were pre-mixed in a 1:1 ratio and seeded in 20 µL medium in a density of 2500 cells/well (1250 cells/well each) in a 384-well plate. After an overnight incubation, a serial dilution of the compounds was added to the plate in a final volume of 60 µL. The P-gp inhibitor tariquidar was added to the cells 15 min prior to the test compounds. After 144 h of incubation, plates were measured for the fluorescent intensity of mCherry (EX/EM: 585 nm/610 nm) and eGFP (EX/EM: 485 nm/510 nm). Cell seeding, aspiration of medium, and addition of drugs were performed by a Hamilton StarLet automated liquid handling robot.
as §5

Colo205 [2] = assay: In vitro cytotoxicity, Colo205 cells (MTT); assay type: cell-based, human; settings: Homo sapiens, COLO 205; 72 h exposure
Source text: as §1, §2, §3, §4
as §5, with “From the MES-SA cell data, the IC50 values were calculated by our custom program, written by J. Sessler in C#. The p values were calculated by Student’s t-test. The IC50 values were always obtained from at least three independent experiments.” left out

MES-SA = assay: In vitro cytotoxicity, MES-SA cells (fluorescent protein readout); assay type: cell-based, human; settings: Homo sapiens, MES-SA; 144 h exposure
Source text: as §1, §6, §3, §7, §5

OATP1B1 = molecular target: T1, OATP1B1 (Homo sapiens, UniProt Q9Y6L6); assay: OATP uptake assay, OATP1B1; assay type: cell-based; settings: reference inhibitor; experiments not documented
T1 construct: expressed in transfected cells; host or cells: A431 epidermoid carcinoma cells
T1 sequence (Q9Y6L6 1-691): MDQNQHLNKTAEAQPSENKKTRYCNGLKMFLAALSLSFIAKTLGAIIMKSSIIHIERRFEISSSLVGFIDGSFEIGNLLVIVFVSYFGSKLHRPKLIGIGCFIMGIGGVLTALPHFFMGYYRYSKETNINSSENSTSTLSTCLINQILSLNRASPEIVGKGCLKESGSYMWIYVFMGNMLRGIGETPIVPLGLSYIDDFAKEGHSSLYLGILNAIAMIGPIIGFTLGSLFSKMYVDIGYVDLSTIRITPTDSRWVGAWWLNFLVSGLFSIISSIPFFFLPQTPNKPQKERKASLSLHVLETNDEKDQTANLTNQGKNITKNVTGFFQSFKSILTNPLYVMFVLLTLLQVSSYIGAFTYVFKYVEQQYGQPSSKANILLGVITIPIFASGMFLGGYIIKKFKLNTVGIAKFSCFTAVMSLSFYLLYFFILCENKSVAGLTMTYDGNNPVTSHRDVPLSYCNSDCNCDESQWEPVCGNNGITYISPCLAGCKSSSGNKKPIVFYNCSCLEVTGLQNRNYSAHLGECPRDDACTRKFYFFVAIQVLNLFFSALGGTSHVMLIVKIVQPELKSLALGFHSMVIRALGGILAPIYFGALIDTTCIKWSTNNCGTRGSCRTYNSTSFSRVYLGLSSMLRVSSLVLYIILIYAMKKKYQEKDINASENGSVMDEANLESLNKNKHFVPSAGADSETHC
Description: (§8) Cell lines: A431 cells overexpressing OATP1B1 or OATP2B1, and their mock transfected controls were generated and characterized previously. The cell lines were cultured in DMEM (Gibco, Thermofisher Scientific, Waltham, MA, USA), supplemented with 10% fetal bovine serum, 2 mM L-glutamine, 100 μg/mL streptomycin, and 100 units/mL penicillin at 37 °C and 5% CO2.
(§9) OATP uptake assay: Prior to the experiment, A431 cells (8 × 10^4/well) were seeded on 96-well plates in 200 μL cell culture medium. After 16–24 h, the cells were washed with 200 μL PBS, three times and pre-incubated with 20–200 μM HQNO2-L-Pro, or buffer without HQNO2-L-Pro for 5 min at 37 °C in 50 μL HBSS (Hank’s Balanced Salt Solution, pH 7.4; OATP1B1) or uptake buffer (pH 5.5; OATP2B1 [63]). The reaction was started by the addition of disulfopyrene (6,8-dihydroxy-1,3-pyrenedisulfonic acid disodium salt, Sigma, Darmstadt, Germany) at a final concentration of 10 μM (OATP1B1) or pyranine (8-hydroxypyrene-1,3-pyrenetrisulfonic acid trisodium salt, Sigma, Darmstadt, Germany) at a final concentration of 20 μM (OATP2B1), and the cells were further incubated at 37 °C for 10 min (OATP1B1) or 15 min (OATP2B1). The reaction was stopped by removing the supernatant after which the cells were washed three times with ice-cold PBS. Fluorescence (in 200 μL PBS) was determined using an Enspire plate reader (PerkinElmer, Waltham, MA, USA) with excitation/emission wavelengths of 460/510 nm. OATP-dependent transport was calculated by subtracting fluorescence measured in mock transfected cells. Transport activity was calculated based on the fluorescence signal in the absence (100%) of HQNO2-L-Pro. Experiments were repeated in at least three biological replicates.

OATP2B1 = molecular target: T2, OATP2B1 (Homo sapiens, UniProt O94956); assay: OATP uptake assay, OATP2B1; assay type: cell-based; settings: reference inhibitor; experiments not documented
T2 construct: expressed in transfected cells; host or cells: A431 epidermoid carcinoma cells
T2 sequence (O94956 1-709): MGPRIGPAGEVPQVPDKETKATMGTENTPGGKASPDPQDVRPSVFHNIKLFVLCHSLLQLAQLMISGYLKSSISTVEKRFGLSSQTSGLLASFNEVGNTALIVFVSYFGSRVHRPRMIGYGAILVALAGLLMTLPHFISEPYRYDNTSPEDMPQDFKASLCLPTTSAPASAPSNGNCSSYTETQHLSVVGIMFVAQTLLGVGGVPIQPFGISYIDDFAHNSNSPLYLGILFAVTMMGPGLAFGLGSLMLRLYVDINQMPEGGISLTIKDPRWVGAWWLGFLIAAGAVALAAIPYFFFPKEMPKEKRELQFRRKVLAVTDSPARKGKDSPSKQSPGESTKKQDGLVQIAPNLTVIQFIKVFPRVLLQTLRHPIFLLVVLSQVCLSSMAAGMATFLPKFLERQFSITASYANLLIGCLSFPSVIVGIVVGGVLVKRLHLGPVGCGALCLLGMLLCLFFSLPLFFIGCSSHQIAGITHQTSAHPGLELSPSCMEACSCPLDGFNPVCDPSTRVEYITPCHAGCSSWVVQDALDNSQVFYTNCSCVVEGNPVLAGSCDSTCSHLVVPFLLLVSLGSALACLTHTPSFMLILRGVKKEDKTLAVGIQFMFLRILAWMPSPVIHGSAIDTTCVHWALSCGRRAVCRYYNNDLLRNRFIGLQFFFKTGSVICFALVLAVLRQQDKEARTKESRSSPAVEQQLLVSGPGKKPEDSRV
Description: as §8, §9

Colo320 [3] = system: Colo320; design: method as in PMID 32500882; settings: cited from earlier work
HSA site I (Trp-214) = molecular target: T3, HSA site I (Trp-214) (Homo sapiens, UniProt P02768); design: method as in PMID 32500882; settings: cited from earlier work
T3 construct: purchased Sigma-Aldrich (Darmstadt, Germany) A8763
T3 sequence (P02768 25-609): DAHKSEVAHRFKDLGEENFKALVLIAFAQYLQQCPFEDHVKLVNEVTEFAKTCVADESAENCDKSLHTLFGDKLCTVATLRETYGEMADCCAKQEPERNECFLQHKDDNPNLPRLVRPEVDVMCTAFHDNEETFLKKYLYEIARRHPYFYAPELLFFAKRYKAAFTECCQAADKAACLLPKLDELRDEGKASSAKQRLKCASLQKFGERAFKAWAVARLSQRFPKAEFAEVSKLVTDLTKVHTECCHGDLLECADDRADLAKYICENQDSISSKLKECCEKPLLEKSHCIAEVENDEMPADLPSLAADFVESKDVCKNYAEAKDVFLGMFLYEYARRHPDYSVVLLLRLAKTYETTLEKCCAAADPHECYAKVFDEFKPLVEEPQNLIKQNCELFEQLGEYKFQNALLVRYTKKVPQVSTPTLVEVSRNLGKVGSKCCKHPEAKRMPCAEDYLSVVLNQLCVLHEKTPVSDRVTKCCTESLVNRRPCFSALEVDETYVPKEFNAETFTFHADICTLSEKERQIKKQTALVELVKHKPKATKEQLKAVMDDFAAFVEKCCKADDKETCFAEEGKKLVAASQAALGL

HSA site II = molecular target: T4, HSA site II (Homo sapiens, UniProt P02768); design: method as in PMID 32500882; settings: cited from earlier work
T4 construct: purchased Sigma-Aldrich (Darmstadt, Germany) A8763
T4 sequence (P02768 25-609): as above

Colo205 [4] = system: Colo205; design: method as in PMID 32500882; settings: 72 h exposure; cited from earlier work
[5] = design: method as in earlier work; settings: pH 7.40, cited from earlier work

COc1cccc2c1C(=O)c1c(O)c3c(c(O)c1C2=O)C[C@@](O)(C(=O)CO)C[C@@H]3O[C@H]1C[C@H](N)[C@H](O)[C@H](C)O1 [doxorubicin, reference compound]
IC50 (Colo320 [1]): 5.4 ± 0.9 µM
IC50 (MES-SA/Dx5): 4 ± 1 µM
IC50 (Colo205 [2]): 710 ± 20 nM
IC50 (MES-SA): 30 ± 10 nM

O=C1OC(c2ccc(O)c(S(=O)(=O)O)c2)(c2ccc(O)c(S(=O)(=O)O)c2)c2c(Br)c(Br)c(Br)c(Br)c21 [bromosulfophthalein, reference compound]
effect on OATP1B1 transport (OATP1B1): inhibited the transport
effect on OATP2B1 transport (OATP2B1): inhibited the transport

Cc1ccc(C(C)C)cc1.O=C(O)[C@@H]1CCC[NH+]1Cc1cc(Cl)c2ccc[n+]3c2c1[O][Ru-]3[Cl].[Cl-] [RuCym-HQCl-L-Pro]
IC50 (Colo320 [3]; 72 h exposure): > 100 µM
Selectivity ratio IC50 (Colo205)/IC50 (Colo320) (Colo320 [3]; calculated from IC50 values taken from ref 12): ≤ 0.68
quenching constant logKQ' (HSA site I (Trp-214)): 5.7
DG marker displacement constant logKDG' (HSA site II): 6.1
IC50 (Colo205 [4]): 68 ± 11 µM
log D7.4 ([5]; 24 mM chloride): +0.09 ± 0.03
log D7.4 ([5]; 100 mM chloride): +0.46 ± 0.03
